Consider 34 compounds from patent US20050009894A1 (Aventis Pharma S.A., priority 2001, published 2005).

Where two headings read alike, the source gives them in different places.

The target of this experiment is T1, human KDR enzyme (Homo sapiens, UniProt P35968).
T1 construct: The cytoplasmic domain of human KDR enzyme is cloned in the form of a GST fusion; GST; made in house; host or cells: SF21 insect cells (baculovirus, pFastBac)
In words: Phosphorylation of the substrate PLCγ by the enzyme KDR in vitro (flashplate technique). The class given is biochemical. As to the method: The inhibitory effect of the compounds is determined in a test of phosphorylation of a substrate by the enzyme KDR in vitro by the flasplate technique (96-well plate, NEN). The cytoplasmic domain of human KDR enzyme is cloned in the form of a GST fusion into the baculovirus expression vector pFastBac. The protein is expressed in the SF21 cells and purified to about 60% homogeneity.
The kinase activity of KDR is measured in 20 mM MOPS, 10 mM MgCl2, 10 mM MnCl2, 1 mM DTT, 2.5 mM EGTA, 10 mM β-glycerophosphate, pH 7.2 in the presence of 10 mM MgCl2, 100 μM Na3VO4, 1 mM NaF. 10 μl of the compound are added to 70 μl of kinase buffer containing 100 ng of KDR enzyme at 4° C. The reaction is initiated by adding 20 μl of solution containing 2 μg of substrate (fragment SH2-SH3 of PLCγ expressed in the form of a GST fusion protein), 2 μCi γ33P[ATP] and 2 μM cold ATP. After incubating for 1 h at 37° C., the reaction is quenched by adding 1 volume (100 μl) of 200 mM EDTA. The incubation buffer is removed and the wells are washed three times with 300 μl of PBS. The radioactivity is measured in each well using a Top Count NXT instrument (Packard).
Background noise is determined by measuring the radio-activity in wells in quadruplet containing radioactive ATP and the substrate alone.
An activity control is measured in wells in quadruplet containing all the reagents (γ33P-[ATP], KDR and the substrate PLCγ) and in the absence of compound.
The inhibition of the KDR activity with the compound of the invention is expressed as a percentage of inhibition of the control activity determined in the absence of compound.
The compound SU5614 (Calbiochem) (1 μM) is included in each plate as inhibition control.
The IC50 values for the compounds are calculated by plotting the dose-response curves. The IC50 corresponds to the concentration of compound that induces a 50% inhibition of the kinase activity.

Setting [1] is: Table VII, degrees of activity by IC50 range, read-out: Activity.
[2] abbreviates: read-out: IC50 (μM) on inhibition of the phosphory-lation of PLCγ by KDR.

T1 sequence (P35968 786-1356 limits assumed): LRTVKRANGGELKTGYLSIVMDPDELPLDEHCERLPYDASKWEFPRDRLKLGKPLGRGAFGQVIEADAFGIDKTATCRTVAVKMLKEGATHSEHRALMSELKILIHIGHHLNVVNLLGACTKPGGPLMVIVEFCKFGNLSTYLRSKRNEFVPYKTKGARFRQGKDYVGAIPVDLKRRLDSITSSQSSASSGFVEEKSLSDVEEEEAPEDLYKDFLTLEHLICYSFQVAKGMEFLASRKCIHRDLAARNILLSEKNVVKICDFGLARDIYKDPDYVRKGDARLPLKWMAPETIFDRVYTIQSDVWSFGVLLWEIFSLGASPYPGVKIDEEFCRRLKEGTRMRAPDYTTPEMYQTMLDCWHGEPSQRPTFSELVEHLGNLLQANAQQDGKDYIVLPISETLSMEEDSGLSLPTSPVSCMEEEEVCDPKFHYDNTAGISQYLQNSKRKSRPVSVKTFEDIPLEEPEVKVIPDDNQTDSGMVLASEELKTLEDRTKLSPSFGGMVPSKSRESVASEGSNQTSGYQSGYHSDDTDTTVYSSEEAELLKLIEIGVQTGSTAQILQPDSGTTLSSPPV

Turning to `c1ccc2c(-c3ccc4nc(-c5[nH]nc6ccccc56)[nH]c4c3)cccc2c1` [Example 99, 3-(6-Naphthalen-1-yl-1H-benzoimidazol-2-yl)-2H-indazole], the IC50 under setting [1] was more than 3 µM.

On to `O=C(COc1cc(-c2nc3ccccc3[nH]2)[nH]n1)c1cc(-c2ccccc2)no1` [Example 203, 2-[5-(1H-Benzoimidazol-2-yl)-1H-pyrazol-3-yloxy]-1-(3-phenyl-isoxazol-5-yl)-ethanone], for which the IC50 under setting [1] was more than 3 µM.

Regarding `N#Cc1ccc(CNC(=O)c2ccc3[nH]c(-c4n[nH]c5ccccc45)nc3c2)cc1` [Example 59, 2-(1H-Indazol-3-yl)-1H-benzoimidazole-5-carboxylic acid 4-cyano-benzylamide], the IC50 under setting [1] is 0.3 to 3 µM.

Regarding `FC(F)(F)Oc1ccc(-c2ccc3nc(-c4[nH]nc5ccccc45)[nH]c3c2)cc1` [Example 124, 3-[6-(4-Trifluoromethoxy-phenyl)-1H-benzoimidazol-2-yl]-2H-indazole], the IC50 under setting [1] was more than 3 µM.

Regarding `O=C(NCc1cc(F)c(F)c(F)c1)c1ccc2[nH]c(-c3n[nH]c4ccccc34)nc2c1` [Example 161, 2-(1H-Indazol-3-yl)-1H-benzoimidazole-5-carboxylic acid 3,4,5-trifluoro-benzylamide], under setting [1], the IC50 is 0.3 to 3 µM.

Consider `O=C(NCc1ccc(-c2cccs2)s1)c1ccc2[nH]c(-c3n[nH]c4ccccc34)nc2c1` [Example 57, 2-(1H-Indazol-3-yl)-1H-benzoimidazole-5-carboxylic acid ([2,2′]bithiophenyl-5-ylmethyl)-amide], for which the IC50 under setting [1] lay within 0.3 to 3 µM.

In the case of `O=C(NCc1c(F)cccc1F)c1ccc2[nH]c(-c3n[nH]c4ccccc34)nc2c1` [Example 156, 2-(1H-Indazol-3-yl)-1H-benzoimidazole-5-carboxylic acid 2,6-difluoro-benzylamide], the IC50 under setting [1] fell in the range of 0.3 to 3 µM.

As for `Cn1c(CNC(=O)c2ccc3[nH]c(-c4n[nH]c5ccccc45)nc3c2)nc2ccccc21` [Example 70, 2-(1H-Indazol-3-yl)-1H-benzoimidazole-5-carboxylic acid (1-methyl-1H-benzoimidazol-2-ylmethyl)-amide], under setting [1], the IC50 is 0.3 to 3 µM.

On to `CC(=O)c1ccc(-c2ccc3nc(-c4[nH]nc5ccccc45)[nH]c3c2)cc1` [Example 125, 1-{4-[2-(2H-Indazol-3-yl)-3H-benzoimidazol-5-yl]-phenyl}-ethanone], for which the IC50 under setting [1] was more than 3 µM.

On to `c1ccc2c(c1)Sc1cccc(-c3ccc4nc(-c5n[nH]c6ccccc56)[nH]c4c3)c1S2` [Example 105, 3-(6-Thianthren-1-yl-1H-benzoimidazol-2-yl)-2H-indazole], for which the IC50 under setting [1] is more than 3 µM.

Take `O=C(COCc1ccccc1)Oc1cc(-c2nc3ccccc3[nH]2)[nH]n1` [Example 216, Benzyloxy-acetic acid 5-(1H-benzoimidazol-2-yl)-1H-pyrazol-3-yl ester]: the IC50 under setting [1] is more than 3 µM.

Take `O=C(NCc1ccccc1[N+](=O)[O-])c1ccc2[nH]c(-c3n[nH]c4ccccc34)nc2c1` [Example 67, 2-(1H-Indazol-3-yl)-1H-benzoimidazole-5-carboxylic acid 2-nitro-benzylamide]: the IC50 under setting [1] was in the range of 0.3 to 3 µM.

In the case of `CS(=O)(=O)c1ccc(-c2ccc3nc(-c4[nH]nc5ccccc45)[nH]c3c2)cc1` [Example 145, 3-[6-(4-Methanesulfonyl-phenyl)-1H-benzoimidazol-2-yl]-2H-indazole], the IC50 under setting [1] was more than 3 µM.

For `CC(C)OCCCNC(=O)c1ccc2[nH]c(-c3n[nH]c4ccccc34)nc2c1` [Example 50, 2-(1H-Indazol-3-yl)-1H-benzoimidazole-5-carboxylic acid (3-isopropoxy-propyl)-amide], the IC50 under setting [1] is 0.3 to 3 µM.

Regarding `FC(F)(F)c1ccc(-c2ccc3nc(-c4[nH]nc5ccccc45)[nH]c3c2)cc1` [Example 112, 3-[6-(4-Trifluoromethyl-phenyl)-1H-benzoimidazol-2-yl]-2H-indazole], the IC50 under setting [1] is more than 3 µM.

Turning to `O=C(NCc1cccs1)c1ccc2[nH]c(-c3n[nH]c4ccccc34)nc2c1` [Example 34, 2-(1H-Indazol-3-yl)-1H-benzoimidazole-5-carboxylic acid (thiophen-2-ylmethyl)-amide], the IC50 under setting [1] lay in the range of 0.3 to 3 µM.

Consider `O=C(COc1cc(-c2nc3ccccc3[nH]2)[nH]n1)c1ccc(OC(F)(F)F)cc1` [Example 210, 2-[5-(1H-Benzoimidazol-2-yl)-1H-pyrazol-3-yloxy]-1-(4-trifluoromethoxy-phenyl)-ethanone], for which the IC50 under setting [1] was more than 3 µM.

As to `O=C(Oc1cc(-c2nc3ccccc3[nH]2)[nH]n1)c1ccc(C(F)(F)F)cc1` [Example 227, 4-Trifluoromethyl-benzoic acid 5-(1H-benzoimidazol-2-yl)-1H-pyrazol-3-yl ester], the IC50 under setting [1] is more than 3 µM.

With `CS(=O)(=O)c1ccc(CNC(=O)c2ccc3[nH]c(-c4n[nH]c5ccccc45)nc3c2)cc1` [Example 31, 2-(1H-Indazol-3-yl)-1H-benzoimidazole-5-carboxylic acid 4-methanesulfonyl-benzylamide], the IC50 under setting [1] was less than 0.3 µM.

With `O=C(NCC1CCOCC1)c1ccc2[nH]c(-c3n[nH]c4ccccc34)nc2c1` [Example 64, 2-(1H-Indazol-3-yl)-1H-benzoimidazole-5-carboxylic acid (tetrahydro-pyran-4-ylmethyl)-amide], the IC50 under setting [1] was 0.3 to 3 µM.

With `c1ccc2c(-c3nc4ccc(-c5csc6ccccc56)cc4[nH]3)[nH]nc2c1` [Example 132, 3-(6-Benzo[b]thiophen-3-yl-1H-benzoimidazol-2-yl)-2H-indazole], the IC50 under setting [1] is more than 3 µM.

Regarding `CC(C)CNC(=O)c1ccc2[nH]c(-c3n[nH]c4ccccc34)nc2c1` [Example 10, 2-(1H-Indazol-3-yl)-1H-benzimidazole-5-carboxylic acid N-(isobutyl)amide], the IC50 under setting [2] turned out to be 0.34 µM.

On to `O=C(CCc1ccccc1)Oc1cc(-c2nc3ccccc3[nH]2)[nH]n1` [Example 224, 3-Phenyl-propionic acid 5-(1H-benzoimidazol-2-yl)-1H-pyrazol-3-yl ester], for which, under setting [1], the IC50 is 0.3 to 3 µM.

Take `O=C(NCc1ccoc1)c1ccc2[nH]c(-c3n[nH]c4ccccc34)nc2c1` [Example 66, 2-(1H-Indazol-3-yl)-1H-benzoimidazole-5-carboxylic acid (furan-3-ylmethyl)-amide]: under setting [1], the IC50 was 0.3 to 3 µM.

As for `CCC(=O)COc1cc(-c2nc3ccccc3[nH]2)[nH]n1` [Example 201, 1-[5-(1H-Benzoimidazol-2-yl)-1H-pyrazol-3-yloxy]-butan-2-one], the IC50 under setting [1] is more than 3 µM.

As to `COc1cccc(CNC(=O)c2cccc3nc(-c4n[nH]c5ccccc45)[nH]c23)c1` [Example 82, 2-(1H-Indazol-3-yl)-3H-benzoimidazole-4-carboxylic acid 3-methoxy-benzylamide], the IC50 under setting [1] was in the range of 0.3 to 3 µM.

With `O=C(c1ccc2[nH]c(-c3n[nH]c4ccccc34)nc2c1)N1CCOCC1` [Example 7, 2-(1H-Indazol-3-yl)-1H-benzimidazole-5-carboxylic acid N-morpholinoamide], the IC50 under setting [2] worked out at 0.72 µM.

`N#Cc1ccc(C(=O)COc2cc(-c3nc4ccccc4[nH]3)[nH]n2)cc1` [Example 208, 4-{2-[5-(1H-Benzoimi-dazol-2-Yl)-1H-pyrazol-3-yloxy)acetyl}-benzonitrile]: the IC50 under setting [1] was more than 3 µM.

With `O=C(NCc1ccc(C(F)(F)F)nc1)c1ccc2[nH]c(-c3n[nH]c4ccccc34)nc2c1` [Example 172, 2-(1H-Indazol-3-yl)-1H-benzoimidazole-5-carboxylic acid (6-trifluoromethyl-pyridin-3-ylmethyl)-amide], under setting [1], the IC50 was 0.3 to 3 µM.

Regarding `Clc1ccc(COc2cc(-c3nc4ccccc4[nH]3)[nH]n2)cc1Cl` [Example 188, 2-[5-(3,4-Dichloro-benzyloxy)-2H-pyrazol-3-yl]-1H-benzoimidazole], the IC50 under setting [1] lay within 0.3 to 3 µM.

For the compound `CC(=O)c1ccc(-c2ccc3nc(-c4[nH]nc5ccccc45)[nH]c3c2)s1` [Example 128, 1-{5-[2-(2H-Indazol-3-yl)-3H-benzoimidazol-5-yl]-thiophen-2-yl}-ethanone], the IC50 under setting [1] lay in the range of 0.3 to 3 µM.

Consider `Fc1ccc(-c2ccc3nc(-c4[nH]nc5ccccc45)[nH]c3c2)c(F)c1` [Example 135, 3-[6-(2,4-Difluoro-phenyl)-1H-benzoimidazol-2-yl]-2H-indazole], for which the IC50 under setting [1] was in the range of 0.3 to 3 µM.

On to `O=C(Oc1cc(-c2nc3ccccc3[nH]2)[nH]n1)c1cc(C(F)(F)F)cc(C(F)(F)F)c1` [Example 226, 3,5-Bis-trifluoromethyl-benzoic acid 5-(1H-benzoimidazol-2-yl)-1H-pyrazol-3-yl ester], for which the IC50 under setting [1] was more than 3 µM.

Consider `O=C(NCc1cccc(Br)c1)c1cccc2nc(-c3n[nH]c4ccccc34)[nH]c12` [Example 81, 2-(1H-Indazol-3-yl)-3H-benzoimidazole-4-carboxylic acid 3-bromo-benzylamide], for which, under setting [1], the IC50 is more than 3 µM.
